Data published in ChEMBL document CHEMBL5608241, “Discovery of Novel Non-nucleoside DOT1LR231Q Inhibitors with Improved Pharmacokinetic Properties and Anti-lung Cancer Efficacy” (J Med Chem, 2024).
The source made the active and inactive calls. The calls are words filed in the database; no cut-off is given here.

Tests used:
[1] = AUC (0 to t) in male Sprague-Dawley rat at 20 mg/kg, iv measured after 24 hrs by LC-MS/MS analysis; assay type: ADME, organism-based; conditions: in vivo
[2] = Toxicity in male BALB/c-nu mouse model xenografted with human NCI-H460 cells harboring DOT1L R231Q mutant assessed as effect on liver viscera index at 20 mg/kg, ip administered five times a week for 3 weeks; assay type: organism-based; conditions: in vivo, 504 h
NCI-H460 [3] = test: Effect on H3K4me1 expression in human NCI-H460 cells exogenously expressing wildtype DOT1L (unknown origin) (1 to 416 residues) at 5 uM by Western blot analysis; assay type: functional, cell-based
NCI-H460 [4] = test: Effect on H3K36me2 expression in human NCI-H460 cells exogenously expressing DOT1L R231Q mutant (unknown origin) (1 to 416 residues) at 5 uM by Western blot analysis; assay type: functional, cell-based
[5] = Toxicity in male BALB/c-nu mouse model xenografted with human NCI-H460 cells harboring DOT1L R231Q mutant assessed as effect on kidney viscera index at 20 mg/kg, ip administered five times a week for 3 weeks; assay type: organism-based; conditions: in vivo, 504 h
[6] = Half-life in male Sprague-Dawley rat at 20 mg/kg, iv measured after 24 hrs by LC-MS/MS analysis; assay type: ADME, organism-based; conditions: in vivo
NCI-H460 [7] = test: Inhibition of colony formation in human NCI-H460 cells exogenously expressing DOT1L R231Q mutant (unknown origin) (1 to 416 residues) at 5 uM incubated for 7 to 14 days by crystal violet staining based light microscopic analysis relative to control; assay type: functional; conditions: time 7-14 day
[8] = Cmax in male Sprague-Dawley rat at 20 mg/kg, ip measured after 24 hrs by LC-MS/MS analysis; assay type: ADME, organism-based; conditions: in vivo
[9] = Half-life in male Sprague-Dawley rat at 20 mg/kg, ip measured after 24 hrs by LC-MS/MS analysis; assay type: ADME, organism-based; conditions: in vivo
NCI-H460 [10] = test: Antiinvasive activity against human NCI-H460 cells exogenously expressing DOT1L R231Q mutant (unknown origin) (1 to 416 residues) assessed as inhibition of cell invasion at 2.5 to 5 uM incubated for 72 hrs by crystal violet staining based transwell invasion assay; assay type: functional; conditions: dose 2.5-5 µM
[11] = Clearance in male Sprague-Dawley rat at 20 mg/kg, iv measured after 24 hrs by LC-MS/MS analysis; assay type: ADME, organism-based; conditions: in vivo
NCI-H460 [12] = test: Induction of DOT1L R231Q mutant (unknown origin) (1 to 416 residues) stabilization exogenously expressed in human NCI-H460 cells assessed as protection against protease E-mediated degradation preincubated for 7 days followed by protease digestion for 10 mins by DARTS assay; assay type: cell-based; conditions: dose 1.25-5 µM, time 10090.0 min
[13] = Tmax in male Sprague-Dawley rat at 20 mg/kg, ip measured after 24 hrs by LC-MS/MS analysis; assay type: ADME, organism-based; conditions: in vivo
[14] = Toxicity in male BALB/c-nu mouse model xenografted with human NCI-H460 cells harboring DOT1L R231Q mutant assessed as effect on lung viscera index at 20 mg/kg, ip administered five times a week for 3 weeks; assay type: organism-based; conditions: in vivo, 504 h
NCI-H460 [15] = test: Inhibition of sphere formation in human NCI-H460 cells exogenously expressing DOT1L R231Q mutant (unknown origin) (1 to 416 residues) assessed as reduction in self-renewal at 5 uM incubated for 7 to 14 days by inverted microscopic analysis relative to control; assay type: functional; conditions: time 7-14 day
NCI-H460 [16] = test: Inhibition of colony formation in human NCI-H460 cells exogenously expressing wildtype DOT1L (unknown origin) (1 to 416 residues) at 5 uM incubated for 7 to 14 days by crystal violet staining based light microscopic analysis relative to control; assay type: functional; conditions: time 7-14 day
[17] = Bioavailability in male Sprague-Dawley rat at 20 mg/kg, ip measured after 24 hrs by LC-MS/MS analysis; assay type: ADME, organism-based; conditions: in vivo
NCI-H460 [18] = test: Antimigratory activity in human NCI-H460 cells exogenously expressing wildtype DOT1L (unknown origin) (1 to 416 residues) assessed as decrease in number of migrating cells at 2.5 to 5 uM measured after 72 hrs by wound healing assay; assay type: functional, cell-based; conditions: dose 2.5-5 µM
[19] = Tmax in male Sprague-Dawley rat at 20 mg/kg, iv measured after 24 hrs by LC-MS/MS analysis; assay type: ADME, organism-based; conditions: in vivo
NCI-H460 [20] = test: Inhibition of ERK phosphorylation in human NCI-H460 cells exogenously expressing DOT1L R231Q mutant (unknown origin) (1 to 416 residues) at 5 uM by Western blot analysis; assay type: cell-based
NCI-H460 [21] = test: Inhibition of colony formation in DOT1L knockdown human NCI-H460 cells at 2.5 to 5 uM incubated for 7 to 14 days by crystal violet staining based light microscopic analysis; assay type: functional, cell-based; conditions: dose 2.5-5 µM, time 7-14 day
[22] = target: T1, Dual specificity mitogen-activated protein kinase kinase; MEK1/2 (Homo sapiens) (UniProt P36507+Q02750); test: Inhibition of MEK phosphorylation in human NCI-H460 cells exogenously expressing wildtype DOT1L (unknown origin) (1 to 416 residues) at 5 uM by Western blot analysis; assay type: cell-based
[23] = Volume of distribution at steady state in male Sprague-Dawley rat at 20 mg/kg, iv measured after 24 hrs by LC-MS/MS analysis; assay type: ADME, organism-based; conditions: in vivo, read-out: Vdss
[24] = AUC (0 to infinity) in male Sprague-Dawley rat at 20 mg/kg, ip measured after 24 hrs by LC-MS/MS analysis; assay type: ADME, organism-based; conditions: in vivo
NCI-H460 [25] = test: Antiinvasive activity against human NCI-H460 cells exogenously expressing wildtype DOT1L (unknown origin) (1 to 416 residues) assessed as inhibition of cell invasion at 2.5 to 5 uM incubated for 72 hrs by crystal violet staining based transwell invasion assay; assay type: functional; conditions: dose 2.5-5 µM
NCI-H460 [26] = test: Antimigratory activity in human NCI-H460 cells exogenously expressing DOT1L R231Q mutant (unknown origin) (1 to 416 residues) assessed as decrease in number of migrating cells at 2.5 to 5 uM measured after 72 hrs by wound healing assay; assay type: functional, cell-based; conditions: dose 2.5-5 µM
[27] = target: T1, Dual specificity mitogen-activated protein kinase kinase; MEK1/2 (Homo sapiens); test: Inhibition of MEK phosphorylation in human NCI-H460 cells exogenously expressing DOT1L R231Q mutant (unknown origin) (1 to 416 residues) at 5 uM by Western blot analysis; assay type: cell-based
NCI-H460 [28] = test: Inhibition of colony formation in human NCI-H460 cells exogenously expressing wildtype DOT1L (unknown origin) (1 to 416 residues) at 2.5 to 5 uM incubated for 7 to 14 days by crystal violet staining based light microscopic analysis; assay type: functional, cell-based; conditions: dose 2.5-5 µM, time 7-14 day
NCI-H460 [29] = test: Inhibition of MAPK/ERK signaling pathway in human NCI-H460 cells exogenously expressing DOT1L R231Q mutant (unknown origin) (1 to 416 residues) assessed as decrease in RAF1 expression at 5 uM by Western blot analysis; assay type: cell-based
NCI-H460 [30] = test: Inhibition of colony formation in human NCI-H460 cells exogenously expressing DOT1L R231Q mutant (unknown origin) (1 to 416 residues) at 2.5 to 5 uM incubated for 7 to 14 days by crystal violet staining based light microscopic analysis; assay type: functional, cell-based; conditions: dose 2.5-5 µM, time 7-14 day
NCI-H460 [31] = test: Effect on H3K27me3 expression in human NCI-H460 cells exogenously expressing wildtype DOT1L (unknown origin) (1 to 416 residues) at 5 uM by Western blot analysis; assay type: functional, cell-based

T1 sequence (P36507 whole entry, looked up, the tested form may be a part): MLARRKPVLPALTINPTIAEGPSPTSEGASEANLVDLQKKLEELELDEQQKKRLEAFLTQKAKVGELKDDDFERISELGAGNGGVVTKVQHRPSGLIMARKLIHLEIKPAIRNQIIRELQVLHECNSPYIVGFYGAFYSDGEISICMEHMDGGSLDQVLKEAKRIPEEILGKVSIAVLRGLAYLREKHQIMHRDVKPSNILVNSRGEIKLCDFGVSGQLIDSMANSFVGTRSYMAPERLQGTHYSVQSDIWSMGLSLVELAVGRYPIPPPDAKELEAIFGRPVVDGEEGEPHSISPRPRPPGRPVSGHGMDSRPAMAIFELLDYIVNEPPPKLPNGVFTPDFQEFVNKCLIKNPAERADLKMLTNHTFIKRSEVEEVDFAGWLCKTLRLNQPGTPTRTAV
T1 sequence (Q02750 whole entry, looked up, the tested form may be a part): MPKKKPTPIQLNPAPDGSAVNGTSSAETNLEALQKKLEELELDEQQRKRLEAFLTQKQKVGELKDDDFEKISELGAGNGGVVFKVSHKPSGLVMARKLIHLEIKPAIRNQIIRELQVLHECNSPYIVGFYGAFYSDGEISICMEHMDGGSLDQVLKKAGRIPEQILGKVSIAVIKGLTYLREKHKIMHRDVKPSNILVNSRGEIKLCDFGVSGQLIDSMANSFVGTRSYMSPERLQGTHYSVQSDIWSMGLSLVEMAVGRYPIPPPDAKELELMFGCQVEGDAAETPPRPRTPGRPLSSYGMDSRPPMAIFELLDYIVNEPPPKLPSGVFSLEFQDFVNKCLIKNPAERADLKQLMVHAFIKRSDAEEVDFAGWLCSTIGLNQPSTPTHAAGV

In the case of `CC(C)(C)c1ccc(NC(=O)NCCCN(CCCN2CCOCC2)CC2(O)CCN(c3nc(Cl)nc4sccc34)C2)cc1` (stereo unspecified), the AUC(0-t) at 24 h [1] is reported as 5980 ng·h/mL, the Activity [2] is reported as “Non-Toxic” and the Activity (NCI-H460 [3]) is reported as “inactive”. For the same molecule, the Activity (NCI-H460 [4]) was “inactive”, the Activity [5] was “Non-Toxic” and the half-life [6] was 3.9 h. The inhibition at 5 µM (NCI-H460 [7]) was 72.8%, the Cmax [8] was 2570 ng/mL and the half-life [9] was 6.06 h. The Activity (NCI-H460 [10]) was “Active”, the clearance [11] was 55.2 mL/min/kg and the Activity (NCI-H460 [12]) was “Dose-Dependent Effect”. For the same molecule, the Tmax [13] was 0.25 h, the Activity [14] was “Non-Toxic” and the inhibition at 5 µM (NCI-H460 [15]) was 82%. The inhibition at 5 µM (NCI-H460 [16]) was 42%, the bioavailability [17] was 92.2% and the Activity (NCI-H460 [18]) was “Active”. The Tmax [19] was 4.98 min, the inhibition (NCI-H460 [20]) was “Active” and the inhibition (NCI-H460 [21]) was “inactive”. The inhibition [22] was “inactive”, the Vd [23] was 14.4 L/kg and the AUC(0-inf) [24] was 5710 ng·h/mL. For the same molecule, the Activity (NCI-H460 [25]) was “Active”, the Activity (NCI-H460 [26]) was “Active” and the inhibition [27] was “Active”. The inhibition (NCI-H460 [28]) was “Active”, the inhibition (NCI-H460 [29]) was “Active” and the inhibition (NCI-H460 [30]) was “Active”. For the same molecule, the Activity (NCI-H460 [31]) was “inactive”.
